Where two headings read alike, the source gives them in different places. One block for each compound: values may come before it.
Assays:
[1] = test system: neoplastic lesions; parameters: method as in PMID 34168013; conditions: first-in-human experience of 11 patients ref 51; cited from earlier work
[2] = test system: Sarc4809 PDX; assay: Efficacy study in the Sarc4809 sarcoma PDX model; format: in vivo, mouse; conditions: 30 MBq single IV dose, Sarc4809 mice
Protocol: (§1) HEK-FAP cell line was generated using the vector pTAR to insert FAP complementary DNA by recombinase-mediated cassette exchange into the pre-tagged HEK293 cells (InSCREENeX). For in vivo HEK-FAP studies, female nude or SCID beige mice (Charles River Laboratories) were subcutaneously implanted with 5 × 10^6 HEK-FAP cells in 150 µL serum-free media:Matrigel (1:1) (Corning). For the patient-derived xenograft (PDX) efficacy study, female NMRI nu/nu mice (Janvier Labs) were subcutaneously implanted with Sarc4809 fragments (Experimental Pharmacology & Oncology Berlin-Buch). All animal experiments were carried out under licenses approved by the respective authorities and in compliance with guidelines on animal welfare.
A single dose of the indicated treatments was administered IV on day 0, with vehicle (saline), nonradioactive ^natLu-FAP-2286, 30 or 60 MBq ^177Lu-FAP-2286 (30 MBq/nmol and 60 MBq/nmol, respectively), or 30 MBq ^177Lu-FAPI-46 (30 MBq/nmol). Tumor length and width were measured by caliper, and tumor volume was calculated as 0.5 × (length × width^2). Tumor growth and body weight were monitored 3 times weekly. […]
Calculation of relative tumor volume. Relative tumor volume (RTV as %) is calculated according to the following formula: RTV = (Tᵢ/ T0) × 100, where Tᵢ is the tumor volume at day i and T0 is the tumor volume at day 0. […]

[3] = test system: HEK-FAP xenografts; assay: SPECT/CT biodistribution and tumor dosimetry of 177Lu-labeled tracers in HEK-FAP tumor-bearing mice; format: in vivo, mouse
Protocol: as §1
(§2) Thirty megabecquerels (30 MBq/nmol) ^111In-FAP-2286 (n = 9) or ^111In-FAPI-04 (n = 6) was injected intravenously (IV) into HEK-FAP tumor-bearing mice and the distribution of the radiotracers was assessed using the NanoSPECT/computed tomography (CT) system (Mediso). For PET imaging, 10 MBq of ^68Ga-FAP-2286 or ^68Ga-FAPI-46 (10 MBq/nmol) was given IV into HEK-FAP tumor-bearing mice (n = 3) followed by PET/CT analysis using the nanoScan PET/CT system (Mediso). For SPECT imaging of ^177Lu-labeled FAP-2286 or ^177Lu-labeled FAPI-46, 30 MBq was administered IV (30 MBq/nmol; n = 3) and the distribution of the radiotracers was assessed using the nanoScan SPECT/CT system (Mediso).
(§3) The animal studies were conducted in different laboratories. ^111In-Imaging and efficacy studies using the HEK-FAP model and different doses of ^177Lu-FAP-2286 as well as the Sarc4809 PDX efficacy study took place at Berlin Experimental Imaging Center (BERIC, Germany). The Sarc4809 model was originally derived from a primary lesion of undifferentiated pleomorphic sarcoma. These studies were performed in either female swiss nude (Charles River Laboratories, France – ^111In-Imaging), NMRI nude (Janvier Labs, France – PDX efficacy study) or SCID beige mice (Charles River Laboratories, Germany - ^111In-Imaging). ^68Ga-Imaging and comparative studies with ^177Lu labeled FAP-2286 and FAPI-46 were performed at Minerva Imaging ApS, Denmark using female athymic nude mice (Charles River Laboratories, Germany). For all experiments animals were ordered with an age of approximately 6 weeks. Animals were allowed an acclimatization period of at least one week prior to inoculation. Animals were housed in an animal room with 12 hours light and 12 hours darkness with free access to food and water. A maximum number of 5 animals were housed in the same cage, cages were equipped with nesting material and plastic or paper houses for hiding. Each cage was labeled with study ID, group and animal numbers and test compound. For efficacy studies animals were randomized according to tumor size. Animals were checked daily for any signs of illness or abnormal behavior. Main humane endpoints were defined as tumor volumes > 1500 mm^3, tumor burden > 10% of animal weight, body weight loss >15% and tumor ulceration. When reaching one of these criteria the animal was sacrificed by cervical dislocation. All animal experiments were approved either by the Regional Office for Health and Social Affairs Berlin (LAGeSo), Germany or the National Animal Experiments Inspectorate under the Ministry of Environment and Food of Denmark.
(§4) Imaging and image analysis were performed as described. During the scan, mice were kept under isoflurane anesthesia, and body temperature was maintained under warm air. The following acquisition parameters were used for the respective imaging modality.
(§5) For quantification, VivoQuant (InviCRO) was used to draw regions of interest (ROIs) in relevant tissues, with a ROI drawn over the left ventricle of the heart to serve as blood pool surrogate. […]

[4] = as above; format: in vivo, mouse; conditions: mouse, in vivo, iv, 30 MBq IV, HEK-FAP mice; for tissue uptake at 72 h: 72 h p.i.
Protocol: as §1, §2, §3, §4, §5

[5] = test system: HEK-FAP cells; assay: Fluorescence microscopy of cellular internalization and retention in HEK-FAP cells; format: cell-based, human; conditions: 5 nM for 1 h at 37 °C, then compound-free medium up to 72 h
Protocol: HEK-FAP cells were seeded on chamber slides (ibidi) and incubated with 5 nM of AF488-labeled FAP-2286 or FAPI-46 for 1 h at 37 °C. Cells were then washed and further incubated for various timepoints. Cell nuclei were stained with 1 µg/mL Hoechst 33342 dye. Lysosomes were stained using LysoTracker Deep Red (Thermo Fisher Scientific). Images were acquired by using the BZ X800E fluorescence microscope (Keyence) at 40 × magnification.
For fluorescence microscopy assay, HEK-FAP cells were seeded in Poly-D-Lysine-coated 8-well chamber slides at 1 x 10^5 cells per well and incubated for 3 days at 37°C, 5% CO2 in a humified incubator. Attached cells were incubated for 1 hour with 5 nM AF488-labeled FAP-2286 or FAPI-46 in incubation buffer at 37°C. For visualization of lysosomes and late endosomes, cells were stained with LysoTracker DeepRed (Thermo Fisher) for 30 minutes at 37 °C.
Cells were washed three times and incubation buffer was added. Following various incubation periods, cells were washed with HBSS and incubated for 5 min with 1 µg/mL Hoechst 33342 dye for nuclei counterstaining at room temperature.
Fluorescence images were acquired by using a Keyence BZ-X800E fluorescence microscope with 40x magnification.

[6] = test system: HEK-FAP xenograft tumors; assay: SPECT/CT biodistribution of 111In-labeled tracers in HEK-FAP tumor-bearing mice; format: in vivo, mouse; conditions: every 24 h; HEK-FAP mouse tumor model; 111In-FAPI-04 (Supplementary Fig. S6)
Protocol: as §1, §2, §3, §4, §5

Max. BWL, Day 2 [2]: 3% | tumor retention ([3]; HEK-FAP mouse model, SPECT/CT image quantification): ≥ 72 h | tumor absorbed dose ([3]; HEK-FAP tumor self-dose): 2.8 Gy/MBq | time-integrated activity coefficient (TIAC), tumor ([3]; HEK-FAP tumor, calculated from SPECT/CT, extrapolated beyond 72 h): 11.2 MBq*h/MBq | tissue uptake at 3 h ([4]; 3 h after injection, read-out: kidney accumulation): 2.2 %ID/g | tissue uptake at 3 h ([4]; 3 h p.i., n=3, read-out: tumor uptake): 21.1 %ID/g | tissue uptake at 72 h ([4]; n=3, read-out: tumor uptake): 16.4 %ID/g | tissue uptake at 72 h ([4]; read-out: kidney accumulation): 0.6 %ID/g
Compound: CCCCCC(=O)N[C@H]1CSCc2cc(CSCCNC(=O)CN3CCN(CC(=O)O)CCN(CC(=O)O)CCN(CC(=O)O)CC3)cc(c2)CSC[C@@H](C(=O)O)NC(=O)[C@H](Cc2ccccc2)NC(=O)[C@H](CCC(N)=O)NC(=O)[C@H]([C@@H](C)O)NC(=O)[C@@H]2CCCN2C(=O)[C@@H]2CCCN2C1=O [^177Lu-FAP-2286, metal not drawn]
SPECT/CT biodistribution in patients [1]: significant tumor uptake and long retention

Compound: CCCCCC(=O)N[C@H]1CSCc2cc(CSCCNC(=O)CN3CCN(CC(=O)O)CCN(CC(=O)O)CCN(CC(=O)O)CC3)cc(c2)CSC[C@@H](C(=O)N[C@@H](CCCCNC(=O)c2ccc(-c3c4ccc(=N)c(S(=O)(=O)O)c-4oc4c(S(=O)(=O)O)c(N)ccc34)c(C(=O)O)c2)C(N)=O)NC(=O)[C@H](Cc2ccccc2)NC(=O)[C@H](CCC(N)=O)NC(=O)[C@H]([C@@H](C)O)NC(=O)[C@@H]2CCCN2C(=O)[C@@H]2CCCN2C1=O [AF488-FAP-2286]
cellular retention by fluorescence microscopy [5]: retained in HEK-FAP cells and secluded in endosomes out to 72 h

tumor clearance rate [6]: approximately 50%
Compound: N#C[C@@H]1CC(F)(F)CN1C(=O)CNC(=O)c1ccnc2ccc(OCCCN3CCN(C(=O)CN4CCN(CC(=O)O)CCN(CC(=O)O)CCN(CC(=O)O)CC4)CC3)cc12 [FAPI-04, reference compound]

From PMC9399058, “Preclinical evaluation of FAP-2286 for fibroblast activation protein targeted radionuclide imaging and therapy” (European Journal of Nuclear Medicine and Molecular Imaging, 2022)
